Test results published in US20020094524A1, “Compositions and methods for inhibiting HIV infection” (priority 2000, published 2002).

Legend:
CCR5 = experiment: Macrophage receptor expression by flow cytometry; type: cell-based, human; conditions: overnight/24 h; among CD4, CCR5, CXCR4 and CD14 only CCR5 changed (FIG. 8)
Experimental: The cells were removed from the culture plate and then resuspended in 100 μl of phosphate-buffered saline (PBS). After incubation with 20 μl of either anti-CCR5-FITC or anti-CXCR4-FITC or anti-CD4-FITC or anti-CD14-FITC for 45 min at 4° C., the cells were washed twice with PBS and fixed with 1% paraformaldehyde in PBS. Fluorescein-conjugated control antibodies were isotype-matched IgG. Fluorescence was analyzed on an EPICS-Elite flow cytometer (Beckman-Coulter Electronics, Hialeah, Fla.).

HIV Bal strain = experiment: HIV RT activity in HIV Bal strain-infected MDM; type: cell-based, HIV-1; conditions: for HIV RT activity increased: MDM, 12 days after infection (FIG. 1A)
Experimental: The cells were also incubated with SP and/or anti-SP antibody. In this case, SP was incubated with (1:1000 dilution in 10% FCS DMEM) or without anti-SP antibody at room temperature for 10 min and then the mixture was added to the cell cultures for 2 h. When the cells were treated with the combination of CP-96,345 and SP, or CP-96,345, SP and anti-SP antibody, CP-96,345 was incubated with the cell culture for 10 min and then SP was added to the MDM or CP-96,345, SP and anti-SP (1:1000 in 10% FCS DMEM) were incubated for 10 min at room temperature and the mixture was incubated with the MDM for 2 h before infection with HIV. Untreated MDM served as controls. The cells were treated prior to, during, and throughout the infection.
HIV Infection: After 2 h incubation with or without the reagents described above, the cells were infected with equal amounts of cell-free HIV based on p24 antigen content (20 ng/10^6 cells) overnight, and then washed to remove unbound virus. Fresh media containing SP and/or CP-96,345 or anti-SP antibody were added to the MDM as described above. The culture media and the reagents were replaced twice weekly. The culture supernatants were harvested for HIV reverse transcriptase (RT) activity determinations. After HIV infection, the MDM were incubated for 8 to 12 days. At the termination of the experiments, cellular RNA was extracted for assessment of HIV gag gene expression using RT-PCR or real time RT-PCR assays.
The HIV RT activity assay was carried out based on the technique of Willey et al. (30) with modification (22).

HIV LTR promoter = experiment: HIV LTR-driven CAT activity assay in U38 cells; type: cell-based
Excerpt: ACH-2 and U38 cell lines (25, 26) were obtained from the NIH AIDS Reagent Program. DNA extracted from ACH-2 cells was used as a positive standard for HIV DNA PCR as previously reported (27). The U38 cell line contains stably integrated, silent copies of the HIV LTR (long terminal repeat) promoter linked to a CAT (chloramphenicol acetyltransferase) gene and was used to study the effect of SP and/or CP-96,345 and R-113281 on the activation of HIV LTR promoter.
Chloramphenicol acetyltransferase (CAT) activity assay:U38 cells (2×10^6 cells) were incubated with different concentrations of SP and/or CP-96,345 or R-113281 for 48 h. Untreated U38 cells were used as a background control. Cellular proteins were extracted using 1× Reporter Lysis Bufffer (Promega Corp., Madison, Wis.). The lysates were incubated with a mixture containing 0.15 μCi of ^14C-labeled chloramphenicol (DuPont Inc., Boston, Mass.) and 200 μg/ml of n-Butyryl CoA (Promega Corp., Madison, Wis.) in a total volume of 125 μl at 37° C. for 3 h. The acetylated forms of chloramphenicol were extracted with xylene (Aldrich Chemical Company, Milwaukee, Wis.). CAT activity of each sample was quantified using a liquid-scintillation counter (Packard Instrument Company, Downers Grove, Ill.). The results were expressed as the ratio of CAT activity (CPM) of the SP and/or CP-96,345-treated or R-113281-treated U38 to that of the background control.

Molecule | CCR5 receptor expression on MDM (percentage positive cells) (CCR5) | viral replication by HIV RT activity vs HIV infection control (HIV Bal strain; 10^−7M, 8 days after infection (FIG. 4)) | effect of SP alone on HIV replication (RT activity and gag mRNA) (HIV Bal strain; SP 10^−6M, 12 days after infection (FIG. 5)) | HIV RT activity increased (HIV Bal strain; SP 10^−6M) [%] | HIV RT activity increased (HIV Bal strain; SP 10^−8M) [%] | HIV RT activity increased (HIV Bal strain; SP 10^−10M) [%] | HIV LTR-driven CAT activity vs untreated baseline (HIV LTR promoter; SP 10^−5M, 48 hours (FIG. 16)) | HIV LTR-driven CAT activity vs untreated control cells (HIV LTR promoter; SP 10^−10 to 10^−6M, 48 h, P<0.05 (FIG. 7))
COc1ccccc1CN[C@H]1C2CCN(CC2)[C@H]1C(c1ccccc1)c1ccccc1 [CP-96,344] | did not affect | did not have the effect | – | – | – | – | – | –
Substance P [SP] | – | – | enhanced HIV replication | 58 | 40 | 14 | significantly increases | significantly increased
